The results in this text go back to ChEMBL document CHEMBL6115028, “An Amazing 30-Year Journey around the DABO Family: A Medicinal Chemistry Lesson on a Versatile Class of Non-nucleoside HIV-1 Reverse Transcriptase Inhibitors” (J Med Chem, 2025).

Converted amounts (≈) assume the structure as drawn. Some results are limits rather than exact numbers.

Data set [1] concerns the target Human immunodeficiency virus type 1 reverse transcriptase (Human immunodeficiency virus 1, UniProt Q72547). Description: Inhibition of recombinant HIV-1 reverse transcriptase associated RNA-dependent DNA polymerase activity.
Data set [2] in a line: Selectivity index, ratio of CC50 for human MT4 cells to EC50 for antiviral activity against HIV1 infected in human MT4 cells. The format is toxicity, cell-based. As to conditions: read-out: Ratio CC50/EC50.
In data set [3] the test system is MT4. In words: Cytotoxicity against human MT4 cells assessed as reduction in […] incubated for 4 days by MTT assay. The format is functional. As to conditions: MT4, 96 h, time 4 day. Background: Cytopathic effects are the visible damage that an infection or toxin causes in cultured cells.
Data set [4] concerns Human immunodeficiency virus 1. In words: Antiviral activity against HIV1 IIIB infected in human MT4 cells assessed as reduction in virus-induced cytopathic effect incubated for 4 days by MTT assay. The format is functional, organism-based. As to conditions: Human immunodeficiency virus 1, IIIB, MT4, 96 h.
The next data set concerns Candida albicans. Description: Antifungal activity against Candida albicans ATCC 10231 assessed as growth inhibition measured after 48 hrs by CLSI based method. The format is functional.
Another data set relates to Bacillus cereus. In words: Antibacterial activity against Bacillus cereus ATCC 4342 assessed as inhibition of microbial growth incubated for 24 hrs by microdilution method. It is filed as functional.
The next data set deals with Bacillus subtilis. Description: Antibacterial activity against Bacillus subtilis ATCC 6633 assessed as bacterial growth inhibition measured after 48 hrs by resazurin assay. The format is functional. Background: Alamar Blue is a resazurin reagent that responds to reducing activity.
In data set [5] the test system is Staphylococcus aureus. Description: Antibacterial activity against Staphylococcus aureus ATCC 25923 assessed as reduction in bacterial growth incubated for 18 to 20 hrs by broth microdilution assay. The format is functional. As to conditions: time 18-20 hrs.
The next data set has as its system Aspergillus niger. In words: Antifungal activity against Aspergillus niger assessed as reduction in fungal growth. It is filed as functional.
The subject of the next data set is dengue virus type 1. Description: Antiviral activity Dengue virus 1. The format is functional, organism-based.
In the next data set the test system is dengue virus type 2. Description: Antiviral activity Dengue virus 2. The format is functional, organism-based.
In a further data set the test system is dengue virus type 3. In words: Antiviral activity Dengue virus 3. It is filed as functional, organism-based.
In the next data set the test system is dengue virus type 4. Description: Antiviral activity Dengue virus 4. It is filed as functional, organism-based.
Data set [6] can be described thus: Cytotoxicity against African green monkey Vero cells. The format is toxicity, cell-based. As to conditions: chlorocebus sabaeus.
In data set [7] the test system is Human immunodeficiency virus 1. In words: Antiviral activity against HIV-1 harboring RT K103N mutant infected in human MT4 cells assessed as protection against virus-induced cytopathic effect measured for 5 days by MTT assay. It is filed as functional, organism-based. As to conditions: Human immunodeficiency virus 1, MT4, 120 h.
For data set [8], the system named is MT4. In words: Cytotoxicity against human MT4 cells. The format is functional.
Data set [9] deals with Human immunodeficiency virus 1. Description: Antiviral activity against HIV-1 IIIB infected in human C8166 cells assessed as reduction in virus-induced cytopathic effect incubated for 3 days by MTT assay. It is filed as functional, organism-based. As to conditions: Human immunodeficiency virus 1, IIIB, C8166, 72 h.
In a further data set the test system is C8166. Description: Cytotoxicity against human C8166 cells assessed as reduction in cell viability incubated for 72 hrs by MTT assay. It is filed as functional. In general terms: Tetrazolium assays rely on reduction of a dye to a coloured formazan, in cell work by metabolically active cells.
Data set [10] in a line: Selectivity index, ratio of CC50 for human C8166 cells to EC50 for antiviral activity against HIV-1 IIIB infected in human C8166 cells. The format is toxicity, cell-based. As to conditions: read-out: Ratio CC50/EC50.
Data set [11] relates to Human immunodeficiency virus 1. Description: Antiviral activity against wild type HIV-1 IIIB infected in human MT4 cells. It is filed as functional, organism-based. As to conditions: Human immunodeficiency virus 1, IIIB.
Data set [12] is described as follows: Inhibition of Hepatitis C virus NS5B RNA dependent RNA polymerase. Also noted: species or system Hepacivirus hominis.
Data set [13] in a line: Cytotoxicity against African green monkey Vero cells assessed as reduction in cell viability measured after 96 hrs by MTT assay. It is filed as toxicity, cell-based. As to conditions: chlorocebus sabaeus.
The subject of another data set is Zika virus. Description: Antiviral activity against Zika virus infected in Vero cells assessed as reduction in viral DNA replication. The format is functional, organism-based.
A short description of data set [14]: Cytotoxicity against African green monkey Vero cells assessed as reduction in cell growth measured after 96 hrs by MTT assay. As to conditions: chlorocebus sabaeus. The format is toxicity, cell-based.
For data set [15], the system named is Human immunodeficiency virus 1. In words: Antiviral activity against HIV-1 infected in human MT4 cells. The format is functional, organism-based. As to conditions: Human immunodeficiency virus 1, MT4.
The subject of data set [16] is Human immunodeficiency virus 1. Description: Antiviral activity against HIV-1 infected in human MT4 cells assessed as reduction in virus induced cytopathic effect measured for 4 days by MTT assay. It is filed as functional, organism-based. As to conditions: Human immunodeficiency virus 1, MT4, 96 h.
For data set [17], the system named is MT4. Description: Cytotoxicity against human MT4 cells assessed as reduction in cell viability by MTT assay. The format is functional.
A short description of data set [18]: Selectivity index, ratio of CC50 for human MT4 cells to EC50 for antiviral activity against HIV-1 infected in human MT4 cells. It is filed as toxicity, cell-based. As to conditions: read-out: Ratio CC50/EC50.
A short description of data set [19]: Toxicity in African green monkey Vero cells assessed as reduction in cell viability incubated for 72 hrs by MTT assay. It is filed as cell-based. As to conditions: chlorocebus sabaeus, read-out: TD50.
Data set [20] relates to Staphylococcus aureus. Description: Antibacterial activity against Staphylococcus aureus assessed as reduction in microbial growth measured for 18 hrs by CLSI based broth microdilution method. It is filed as functional.
Data set [21] can be described thus: Toxicity in human C8166 cells assessed as reduction in cell viability incubated for 72 hrs by MTT assay. The format is cell-based. As to conditions: read-out: TD50.
Data set [22] deals with Human immunodeficiency virus 1. Description: Antiviral wild type activity against HIV-1 IIIB infected in human C8166 cells assessed as reduction in virus-induced cytopathic effect incubated for 3 days by MTT assay. It is filed as functional, organism-based. As to conditions: Human immunodeficiency virus 1, IIIB, C8166, 72 h.
In data set [23] the test system is Human immunodeficiency virus 1. Description: Antiviral wild type activity against HIV-1 Ba-L infected in human TZM-bl cells assessed as reduction in virus-induced cytopathic effect incubated for 3 days by MTT assay. It is filed as functional, organism-based. As to conditions: Human immunodeficiency virus 1, Ba-L, 72 h.
Data set [24] deals with Human immunodeficiency virus 1. In words: Antiviral wild type activity against HIV-1 TC-1 infected in human PBMC cells assessed as reduction in virus-induced cytopathic effect incubated for 3 days by MTT assay. As to conditions: Human immunodeficiency virus 1, TC-1, PBMC, 72 h. The format is functional, organism-based.
For data set [25], the system named is Human immunodeficiency virus 1. Description: Antiviral wild type activity against HIV-1 WAN infected in human PBMC cells assessed as reduction in virus-induced cytopathic effect incubated for 3 days by MTT assay. The format is functional, organism-based. As to conditions: Human immunodeficiency virus 1, WAN, 72 h.
In data set [26] the test system is Human immunodeficiency virus 1. Description: Antiviral […] activity against HIV-1 A17 harboring reverse transcriptase K103N/Y181C double mutant infected in human C8166 cells assessed as reduction in virus-induced cytopathic effect incubated for 3 days by MTT assay. As to conditions: Human immunodeficiency virus 1, A17, C8166, 72 h. It is filed as functional, organism-based.

Data set [27] relates to Human immunodeficiency virus 1. In words: Antiviral activity against HIV-1 IIIB infected in […] cells assessed as reduction in viral replication measured for 72 hrs. The format is functional, organism-based. As to conditions: Human immunodeficiency virus 1, IIIB.
The nature of data set [28]: Cytotoxicity against African green monkey Vero cells assessed as reduction in cell viability incubated for 72 hrs by MTT assay. As to conditions: chlorocebus sabaeus. It is filed as toxicity, cell-based.
Data set [29] can be described thus: Selectivity index, ratio of CC50 for Vero cells to EC50 for antiviral activity against HIV-1 infected in Vero cells. It is filed as toxicity, cell-based. As to conditions: monkey, read-out: Ratio CC50/EC50.

As a reminder, the IC50 is the midpoint of a concentration-inhibition curve. For orientation: EC50 means the concentration that produces a half-maximal response. The term MIC denotes the least concentration at which growth counts as inhibited.

On to `Cc1ccccc1Cc1nc(SC2CCCCC2)[nH]c(=O)c1C`, for which, in data set [1], the half-inhibitory concentration (IC50) was 1.3 µM. Further, the selectivity ratio in [2] is > 506. The CC50 in the data set on MT4 [3] is > 304 µM. In addition, the EC50 in [4] is 0.6 µM.

As to `CCc1c(Cc2ccc3c(c2)OCO3)nc(SCCCN2C(=O)c3ccccc3C2=O)[nH]c1=O`, the minimum inhibitory concentration (MIC) with Candida albicans was determined as 25 µg/mL (≈ 52.4 µM); with Bacillus cereus, 75 µg/mL; with Bacillus subtilis, 100 µg/mL (≈ 209 µM); in the data set with Staphylococcus aureus [5], 25 µg/mL (≈ 52.4 µM); in the data set with Aspergillus niger it was 75 µg/mL (≈ 157 µM).

Take `CCc1c(CC2CCCCC2)nc(SCc2n[nH]c(-c3ccc(F)cc3)c2Cl)[nH]c1=O`: the concentration for a half-maximal effect (EC50) in the data set with dengue virus type 1 stood at 17.5 µM; in the data set with dengue virus type 2 it was 13.2 µM; in the data set on dengue virus type 3, 6.8 µM; in the data set on dengue virus type 4 it was 11.4 µM. Moreover, in [6], the CC50 is > 200 µM.

Regarding `CCc1c(Cc2ccc3c(c2)OCO3)nc(SCCN(C)C)[nH]c1=O`, the MIC in the data set on Candida albicans turned out to be 50 µg/mL (≈ 138 µM); with Bacillus cereus, 100 µg/mL; with Bacillus subtilis, 50 µg/mL (≈ 138 µM); with Staphylococcus aureus [5], 25 µg/mL (≈ 69.2 µM); with Aspergillus niger it was 75 µg/mL (≈ 207 µM).

For the compound `O=C1c2ccccc2C(=O)N1CCSc1nc(Cc2c(F)cccc2F)cc(=O)[nH]1`, the EC50 in data set [7] was determined as 100 µM. Besides, the CC50 in the data set on MT4 [8] is > 100 µM.

With `CCc1c(CC23CC4CC(CC(C4)C2)C3)nc(SCC(=O)c2ccccc2)[nH]c1=O`, the EC50 in data set [9] and in data set [11] was 0.19 µM throughout. The CC50 in the data set on C8166 was found to be 20.4 µM. Further, the selectivity ratio in data set [10] was 107.

In the case of `CCc1c(CC2CCCCC2)nc(SCC(=O)Nc2cc(F)cc(F)c2)[nH]c1=O`, the IC50 in [12] is 0.089 µM. The CC50 at 96 h in [13] is > 10 µM; in [14], 60.2 µM. Also, the EC50 with Zika virus was > 50 µM.

Regarding `Cc1c(C2(c3c(F)cccc3F)CC2)nc(SC2CCCC2)[nH]c1=O`, the selectivity ratio in data set [2] amounted to 2660. In the data set with MT4 [8], this compound gave a CC50 of 14 µM. Besides, the EC50 in [15] turned out to be 0.005 µM.

Turning to `Cc1cc(=O)[nH]c(SCCN2C(=O)c3ccccc3C2=O)n1`, in [7], the EC50 stood at 1.9 µM. Further, the CC50 in the data set with MT4 [8] worked out at 117 µM.

Turning to `CCC(C)Oc1nc(N)cc(S(=O)(=O)c2cccc(C)c2)n1` (centres undefined), in data set [1], the IC50 stood at 26.5 µM. The EC50 in [16] was 4.7 µM. Further, the CC50 with MT4 [17] was > 200 µM. For the same compound, the selectivity ratio in [18] is > 43.

Regarding `CCc1c(CC23CC4CC(CC(C4)C2)C3)nc(SCC(=O)c2ccc(OC)cc2)[nH]c1=O`, the EC50 in data set [9] and in [11] was 0.1 µM each time. In addition, in the data set on C8166, the CC50 stood at 17.2 µM. In data set [10], the selectivity ratio stood at 172.

As for `COc1ccc(C(Cl)(Cl)c2cc(Cl)nc(OC)n2)cc1`, the figures for the CC50 at 72 h in data set [19] and in data set [21] were 12.5 µg/mL (≈ 37.5 µM) and 25 µg/mL (≈ 74.9 µM), respectively. Further, in the data set on Staphylococcus aureus [20], the MIC was found to be 6.2 µg/mL.

As for `CCc1c(CC2CCCCC2)nc(SCc2cc(-c3ccc(SC)cc3)[nH]n2)[nH]c1=O`, the concentration for a half-maximal effect (EC50) in data set [9] was determined as 0.011 µM; in data set [22], 0.018 µM; in data set [23], 0.193 µM; in data set [24] it was 0.055 µM; in data set [25], 0.165 µM; in data set [26], 4.87 µM.

Regarding `Cc1c(Sc2ccccc2)n(COCCO)c(=O)[nH]c1=O` [HEPT], the EC50 in data set [27] worked out at 7 µM. Further, the CC50 at 72 h in [28] worked out at 740 µM. Moreover, the selectivity ratio in data set [29] turned out to be 106.
